Each compound was assayed against T1, human β3 adrenergic receptor (Homo sapiens, UniProt P13945) (assay: cAMP (SPA) response in CHO cells transfected with human β3 adrenergic receptor). Settings: maximal response relative to maximal response of isoproterenol at 10^-5 M.
T1 construct: Full length β3 AR clones (402 amino acids) containing the last 6 amino acids of hβ3-AR are prepared; expressed in transfected cells; host or cells: CHO (Chinese hamster ovary) cells
Type: cell-based
Set-up: key: fraction of maximal isoproterenol (10^-5 M) response
Outline: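 Reactions were stopped with 0.2N HCl and neutralised, and cAMP was measured by SPA. Activity is expressed as percent of the maximal 10^−5 M isoproterenol response.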

T1 sequence (P13945 whole entry): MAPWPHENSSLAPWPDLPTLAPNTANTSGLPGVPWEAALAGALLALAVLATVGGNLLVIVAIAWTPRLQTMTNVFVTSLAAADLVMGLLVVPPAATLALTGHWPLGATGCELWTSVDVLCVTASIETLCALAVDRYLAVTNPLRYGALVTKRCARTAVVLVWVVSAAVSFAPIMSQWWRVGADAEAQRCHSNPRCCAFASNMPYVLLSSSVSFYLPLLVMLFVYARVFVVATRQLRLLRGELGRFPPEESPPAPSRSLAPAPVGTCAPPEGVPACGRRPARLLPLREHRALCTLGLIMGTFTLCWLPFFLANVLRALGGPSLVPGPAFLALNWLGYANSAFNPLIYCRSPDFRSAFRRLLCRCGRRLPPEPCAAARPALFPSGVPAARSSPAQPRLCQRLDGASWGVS

Row | SMILES | IA(β3)
1 | CC(=O)Nc1ccc(S(=O)(=O)Nc2ccc(N3CCC(NC[C@H](O)c4ccc(O)c(O)c4)CC3)cc2)cc1 [Example 263, N-(4-{[4-(4-{[(2R)-2-(3,4-Dihydroxyphenyl)-2-hydroxyethyl]amino}-1-piperidinyl)anilino]sulfonyl}phenyl)acetamide] | 0.93
2 | CC(C)C[C@H](NC(=O)c1ccc(N2CCC(NC[C@H](O)c3ccc(O)c(NS(C)(=O)=O)c3)CC2)cc1)C(=O)O [Example 199, (2S)-2-(4-{4-[(2R)-2-Hydroxy-2-(4-hydroxy-3-methanesulfonylamino-phenyl)-ethylamino]-piperidin-1-yl}-benzoylamino)-4-methyl-pentanoic acid] | 1
3 | COc1ccc(OC)c(S(=O)(=O)Nc2ccc(N3CCC(NC[C@H](O)c4ccc(O)c(NS(C)(=O)=O)c4)CC3)cc2)c1 [Example 335, N-(4-{4-[((2R)-2-Hydroxy-2-{4-hydroxy-3-[(methylsulfonyl)amino]phenyl}ethyl)amino]-1-piperidinyl}phenyl)-2,5-dimethoxybenzenesulfonamide] | 0.98
4 | CCCCCCNC(=O)Nc1ccc(S(=O)(=O)Nc2ccc(N3CCC(NC[C@H](O)c4cccc(Cl)c4)CC3)cc2)cc1 [Example 311, N-[4-(4-{[(2R)-2-(3-Chlorophenyl)-2-hydroxyethyl]amino-}-piperidinyl)phenyl]-4-{[(hexylamino)carbonyl]amino}benzenesulfonamide] | 0.82
5 | CC(=O)Nc1ccc(S(=O)(=O)Nc2ccc(N3CC(NC[C@H](O)COc4cccc5[nH]c6ccccc6c45)C3)cc2)cc1 [Example 417, N-(4-{[4-(3-{[(2S)-3-(9H-Carbazol-4-yloxy)-2-hydroxypropyl]amino}-1-azetidinyl)anilino]sulfonyl}phenyl)acetamide] | 0.71
6 | COc1ccc(S(=O)(=O)Nc2ccc(N3CCC(NC[C@H](O)c4ccc(O)c(O)c4)CC3)cc2)cc1 [Example 266, N-[4-(4-{[(2R)-2-(3,4-Dihydroxyphenyl)-2-hydroxyethyl]amino}-1-piperidinyl)phenyl]-4-methoxybenzenesulfonamide] | 0.86
7 | CC(=O)Nc1ccc(S(=O)(=O)Nc2ccccc2N2CCC(NC[C@H](O)c3ccc(O)c(O)c3)CC2)cc1 [Example 265, N-(4-{[2-(4-{[(2R)-2-(3,4-Dihydroxyphenyl)-2-hydroxyethyl]amino}-1-piperidinyl)-anilino]sulfonyl}phenyl)acetamide] | 0.8
8 | CCCCOc1ccc(S(=O)(=O)Nc2ccc(N3CC(NC[C@H](O)COc4ccc(O)cc4)C3)cc2)cc1 [Example 411, 4-Butoxy-N-[4-(3-{[(2S)-2-hydroxy-3-(4-hydroxyphenoxy)propyl]amino}-1-azetidinyl)phenyl]benzenesulfonamide] | 0.49
9 | CCOC(=O)c1ccc(S(=O)(=O)Nc2ccc(N3CCC(NC[C@H](O)c4ccc(O)c(NS(C)(=O)=O)c4)CC3)cc2)cc1 [Example 318, Ethyl4-[(4-{4-[((2R)-2-hydroxy-2-{4-hydroxy-3-[(methylsulfonyl)amino]phenyl}ethyl)-amino]-1-piperidinyl}anilino)sulfonyl]benzoate] | 1
10 | CCOC(=O)CNC(=O)Nc1ccc(N2CCC(NC[C@H](O)c3ccc(O)c(NS(C)(=O)=O)c3)CC2)cc1 [Example 377, Ethyl {[(4-{4-[((2R)-2-hydroxy-2-{4-hydroxy-3-[(methylsulfonyl)amino]phenyl}-ethyl)amino]-1-piperidinyl}anilino)carbonyl]amino}acetate] | 0.66
11 | O=C(NCc1ccc(S(=O)(=O)Nc2ccc(N3CCC(NCC(O)c4cccc(O)c4)CC3)cc2)s1)c1ccccc1 (stereo not shown) [Example 349, N-[(5-{[4-(4-{[2-Hydroxy-2-(3-hydroxyphenyl)ethyl]amino}-1-piperidinyl)-anilino]sulfonyl}-2-thienyl)methyl]benzamide] | 1.26
12 | CS(=O)(=O)Nc1cc([C@@H](O)CNC2CCN(c3ccc(C(=O)NCC(=O)O)cc3)CC2)ccc1O [Example 197, [(4-{4-[((2R)-2-Hydroxy-2-{4-hydroxy-3-[(methylsulfonyl)amino]phenyl}ethyl)amino]-1-piperidinyl}benzoyl)amino]acetic acid] | 0.94

More lines, now with the values ahead:

Row | IA(β3) | SMILES
13 | 0.76 | O=S(=O)(Nc1ccc(N2CCC(NCC(O)c3cccc(O)c3)CC2)cc1)c1ccc(Oc2ncc(C(F)(F)F)cc2Cl)cc1 (stereo not shown) [Example 351]
14 | 0.9 | O=c1[nH]c2cccc(OC[C@@H](O)CNC3CCN(c4ccc(NS(=O)(=O)c5cccs5)cc4)CC3)c2[nH]1 [Example 362, N-{4-[4-({(2S)-2-Hydroxy-3-[(2-oxo-2,3-dihydro-1H-benzimidazol-4-yl)oxy]propyl}-amino)-1-piperidinyl]phenyl}-2-thiophenesulfonamide]
15 | 1 | O=C1NC(=O)C(=Cc2ccc(N3CCC(NC[C@H](O)COc4cccc5[nH]c(=O)[nH]c45)CC3)c(Br)c2)S1 [Example 68, 5-(3-Bromo-4-{4-[(2S)-2-hydroxy-3-(2-oxo-2,3-dihydro-1H-benzoimidazol-4-yloxy)-propylamino]-piperidin-1-yl}-benzylidene)-thiazolidine-2,4-dione]
16 | 0.83 | O=c1[nH]c2cccc(OC[C@@H](O)CNC3CCN(c4ccc(NS(=O)(=O)c5cc(Cl)cc(Cl)c5)cc4)CC3)c2[nH]1 [Example 333, 3,5-Dichloro-N-{4-[4-({(2S)-2-hydroxy-3-[(2-oxo-2,3-dihydro-1H-benzimidazol-4-yl)oxy]propyl}amino)-1-piperidinyl]phenyl}benzenesulfonamide]
17 | 0.76 | N#Cc1ccc(S(=O)(=O)N(c2ccc(N3CCC(NC[C@H](O)COc4cccc5[nH]c(=O)[nH]c45)CC3)cc2)S(=O)(=O)c2ccc(C#N)cc2)cc1 [Example 285, 4-Cyano-N-[(4-cyanophenyl)sulfonyl]-N-{4-[4-({(2S)-2-hydroxy-3-[(2-oxo-2,3-dihydro-1H-benzimidazol-4-yl)oxy]propyl}amino)-1-piperidinyl]phenyl}benzenesulfonamide]
18 | 0.63 | COc1ccc(S(=O)(=O)Nc2ccc(N3CCC(NC[C@H](O)c4cccc(Cl)c4)CC3)cc2)cc1 [Example 260, N-[4-(4-{[(2R)-2-(3-Chlorophenyl)-2-hydroxyethyl]amino}-1-piperidinyl)phenyl]-4-methoxybenzenesulfonamide]
19 | 0.58 | O=c1[nH]c2cccc(OC[C@@H](O)CNC3CCN(c4ccc(NS(=O)(=O)c5ccc(-n6nnn(CCCC7CCCC7)c6=O)cc5)cc4)CC3)c2[nH]1 [Example 277]
20 | 0.55 | COc1ccc(S(=O)(=O)Nc2ccc(N3CCC(NCC(O)c4cccc(O)c4)CC3)cc2)cc1OC (stereo not shown) [Example 361, N-[4-(4-{[2-Hydroxy-2-(3-hydroxyphenyl)ethyl]amino}-1-piperidinyl)phenyl]-3,4-dimethoxybenzenesulfonamide]
21 | 0.73 | CCCCCCNC(=O)Nc1ccc(S(=O)(=O)Nc2ccc(N3CCC(NC[C@H](O)COc4cccc5[nH]c(=O)[nH]c45)CC3)cc2)cc1 [Example 275, 4-{[(Hexylamino)carbonyl]amino}-N-{4-[4-({(2S)-2-hydroxy-3-[(2-oxo-2,3-dihydro-1H-benzimidazol-4-yl)oxy]propyl}amino)-1-piperidinyl]phenyl}benzenesulfonamide]
22 | 0.54 | COc1ccc(S(=O)(=O)Nc2ccc(N3CCC(NC[C@H](O)COc4ccccc4)CC3)cc2)cc1OC [Example 360, N-[4-(4-{[(2S)-2-Hydroxy-3-phenoxypropyl]amino}-1-piperidinyl)phenyl]-3,4-dimethoxybenzenesulfonamide]

Source: patent publication US7022716B2, “Cyclic amine phenyl beta-3 adrenergic receptor agonists” (Wyeth, priority 2000, dated 2006)
